Reference: ChEMBL document CHEMBL3046607, “Synthesis and Herbicidal Activity of New 1-Alkyl-3-aryloxypyrazole-4-carboxamide Derivatives” (J Pestic Sci, 2004)
Calls of active or inactive are those of the source. The rule behind the calls is not given here.

Tests used:
Elatine triandra [1] = assay: Post-emergence herbicidal activity against Elatine triandra assessed as bleaching of stem/leaf parts; type: functional, organism-based; also: test concentration or dose not given here
Ammannia multiflora [2] = assay: Post-emergence herbicidal activity against Ammannia multiflora assessed as bleaching of stem/leaf parts; type: functional, organism-based
Rotala indica [3] = assay: Post-emergence herbicidal activity against Rotala indica assessed as bleaching of stem/leaf parts; type: functional, organism-based
Lindernia procumbens [4] = assay: Post-emergence herbicidal activity against Lindernia procumbens assessed as bleaching of stem/leaf parts; type: functional, organism-based; also: test concentration or dose not given here
[5] = system: Schoenoplectiella juncoides; assay: Post-emergence herbicidal activity against Schoenoplectiella juncoides assessed as bleaching of stem/leaf parts; type: functional, organism-based; also: test concentration or dose not given here
Ammannia multiflora [6] = assay: Pre-emergence herbicidal activity against Ammannia multiflora at 500 g a.i/ha measured after 14 days; type: functional, organism-based
Elatine triandra [7] = assay: Pre-emergence herbicidal activity against Elatine triandra at 500 g a.i/ha measured after 14 days; type: functional, organism-based
Oryza sativa [8] = assay: Phytotoxicity against Oryza sativa cv. Koshihikari (rice) at 500 g a.i/ha measured after 14 days; type: organism-based; details: in vivo, 336 h
Rotala indica [9] = assay: Pre-emergence herbicidal activity against Rotala indica at 500 g a.i/ha measured after 14 days; type: functional, organism-based
Lindernia procumbens [10] = assay: Pre-emergence herbicidal activity against Lindernia procumbens at 500 g a.i/ha measured after 14 days; type: functional, organism-based
[11] = system: Schoenoplectiella juncoides; assay: Pre-emergence herbicidal activity against Schoenoplectiella juncoides at 500 g a.i/ha measured after 14 days; type: functional, organism-based
Pontederia vaginalis [12] = assay: Pre-emergence herbicidal activity against Monochoria vaginalis at 500 g a.i/ha measured after 14 days; type: functional, organism-based
Cyperus difformis [13] = assay: Pre-emergence herbicidal activity against Cyperus difformis at 500 g a.i/ha measured after 14 days; type: functional, organism-based
Echinochloa oryzicola [14] = assay: Pre-emergence herbicidal activity against Echinochloa oryzicola at 500 g a.i/ha measured after 14 days; type: functional, organism-based
Lindernia procumbens [15] = assay: Pre-emergence herbicidal activity against Lindernia procumbens assessed as bleaching of stem/leaf parts; type: functional, organism-based
Pontederia vaginalis [16] = assay: Pre-emergence herbicidal activity against Monochoria vaginalis assessed as bleaching of stem/leaf parts; type: functional, organism-based
[17] = system: Schoenoplectiella juncoides; assay: Pre-emergence herbicidal activity against Schoenoplectiella juncoides assessed as bleaching of stem/leaf parts; type: functional, organism-based
Cyperus difformis [18] = assay: Pre-emergence herbicidal activity against Cyperus difformis assessed as bleaching of stem/leaf parts; type: functional, organism-based
Echinochloa oryzicola [19] = assay: Pre-emergence herbicidal activity against Echinochloa oryzicola assessed as bleaching of stem/leaf parts; type: functional, organism-based
Cyperus difformis [20] = assay: Post-emergence herbicidal activity against Cyperus difformis assessed as bleaching of stem/leaf parts; type: functional, organism-based; also: test concentration or dose not given here
Pontederia vaginalis [21] = assay: Post-emergence herbicidal activity against Monochoria vaginalis assessed as bleaching of stem/leaf parts; type: functional, organism-based
Echinochloa oryzicola [22] = assay: Post-emergence herbicidal activity against Echinochloa oryzicola assessed as bleaching of stem/leaf parts; type: functional, organism-based
Ammannia multiflora [23] = assay: Pre-emergence herbicidal activity against Ammannia multiflora assessed as bleaching of stem/leaf parts; type: functional, organism-based
Elatine triandra [24] = assay: Pre-emergence herbicidal activity against Elatine triandra assessed as bleaching of stem/leaf parts; type: functional, organism-based
Rotala indica [25] = assay: Pre-emergence herbicidal activity against Rotala indica assessed as bleaching of stem/leaf parts; type: functional, organism-based
Oryza sativa [26] = assay: Phytotoxicity against Oryza sativa cv. Koshihikari (rice) at 33 g a.i/ha measured after 14 days; type: organism-based; details: in vivo, 336 h
Ammannia multiflora [27] = assay: Pre-emergence herbicidal activity against Ammannia multiflora at 33 g a.i/ha measured after 14 days; type: functional, organism-based
Elatine triandra [28] = assay: Pre-emergence herbicidal activity against Elatine triandra at 33 g a.i/ha measured after 14 days; type: functional, organism-based
Rotala indica [29] = assay: Pre-emergence herbicidal activity against Rotala indica at 33 g a.i/ha measured after 14 days; type: functional, organism-based
Lindernia procumbens [30] = assay: Pre-emergence herbicidal activity against Lindernia procumbens at 33 g a.i/ha measured after 14 days; type: functional, organism-based
[31] = system: Schoenoplectiella juncoides; assay: Pre-emergence herbicidal activity against Schoenoplectiella juncoides at 33 g a.i/ha measured after 14 days; type: functional, organism-based
Pontederia vaginalis [32] = assay: Pre-emergence herbicidal activity against Monochoria vaginalis at 33 g a.i/ha measured after 14 days; type: functional, organism-based
Cyperus difformis [33] = assay: Pre-emergence herbicidal activity against Cyperus difformis at 33 g a.i/ha measured after 14 days; type: functional, organism-based
Echinochloa oryzicola [34] = assay: Pre-emergence herbicidal activity against Echinochloa oryzicola at 33 g a.i/ha measured after 14 days; type: functional, organism-based

| Compound | Activity (Elatine triandra [1]) | Activity (Ammannia multiflora [2]) | Activity (Rotala indica [3]) | Activity (Lindernia procumbens [4]) | Activity [5] | Activity (Ammannia multiflora [6]) | Activity (Elatine triandra [7]) | Activity (Oryza sativa [8]) | Activity (Rotala indica [9]) | Activity (Lindernia procumbens [15]) | Activity (Pontederia vaginalis [16]) | Activity [17] | Activity (Cyperus difformis [18]) | Activity (Echinochloa oryzicola [19]) | Activity (Cyperus difformis [20]) | Activity (Pontederia vaginalis [21]) | Activity (Echinochloa oryzicola [22]) | Activity (Ammannia multiflora [23]) | Activity (Elatine triandra [24]) | Activity (Rotala indica [25]) | also measured |
| --- | --- | --- | --- | --- | --- | --- | --- | --- | --- | --- | --- | --- | --- | --- | --- | --- | --- | --- | --- | --- | --- |
| Cn1cc(C(=O)N2CCCC2)c(Oc2cccc(C(F)(F)F)c2)n1 | Active | Active | Active | Active | Active | inactive | inactive | Non-toxic | inactive | Active | Active | Active | Active | Active | Active | Active | Active | Active | Active | Active | Activity (Lindernia procumbens [10]): inactive; Activity [11]: inactive; Activity (Pontederia vaginalis [12]): inactive; Activity (Cyperus difformis [13]): inactive; Activity (Echinochloa oryzicola [14]): inactive |
| CC(NC(=O)c1cn(C)nc1Oc1cccc(C(F)(F)F)c1)c1ccccc1 (stereo not given) | Active | Active | Active | Active | Active | inactive | inactive | Non-toxic | inactive | Active | Active | Active | Active | Active | Active | Active | Active | Active | Active | Active | Activity (Lindernia procumbens [10]): inactive; Activity [11]: inactive; Activity (Pontederia vaginalis [12]): inactive; Activity (Cyperus difformis [13]): inactive; Activity (Echinochloa oryzicola [14]): inactive |
| Cn1cc(C(=O)Nc2ccc(F)cc2F)c(Oc2cc(C(F)(F)F)ccn2)n1 | Active | Active | Active | Active | Active | inactive | inactive | Non-toxic | inactive | Active | Active | Active | Active | Active | Active | Active | Active | Active | Active | Active | Activity (Lindernia procumbens [10]): inactive; Activity [11]: inactive; Activity (Pontederia vaginalis [12]): inactive; Activity (Cyperus difformis [13]): inactive; Activity (Echinochloa oryzicola [14]): inactive |
| Cn1cc(C(=O)NCC2CCCO2)c(Oc2cccc(C(F)(F)F)c2)n1 (stereo not given) | Active | Active | Active | Active | Active | inactive | inactive | Non-toxic | inactive | Active | Active | Active | Active | Active | Active | Active | Active | Active | Active | Active | Activity (Lindernia procumbens [10]): inactive; Activity [11]: inactive; Activity (Pontederia vaginalis [12]): inactive; Activity (Cyperus difformis [13]): inactive; Activity (Echinochloa oryzicola [14]): inactive |
| CSc1ccc(Oc2nn(C)cc2C(=O)Nc2ccc(F)cc2F)cc1C(F)(F)F | Active | Active | Active | Active | Active | Active | Active | Non-toxic | Active | Active | Active | Active | Active | Active | Active | Active | Active | Active | Active | Active | Activity (Lindernia procumbens [10]): Active; Activity [11]: inactive; Activity (Pontederia vaginalis [12]): Active; Activity (Cyperus difformis [13]): Active; Activity (Echinochloa oryzicola [14]): Active |
| CC(C)n1cc(C(=O)Nc2ccc(F)cc2F)c(Oc2cccc(C(F)(F)F)c2)n1 | Active | Active | Active | Active | Active | – | – | – | – | Active | Active | Active | Active | Active | Active | Active | Active | Active | Active | Active | Activity (Oryza sativa [26]): Non-toxic; Activity (Ammannia multiflora [27]): inactive; Activity (Elatine triandra [28]): inactive; Activity (Rotala indica [29]): inactive; Activity (Lindernia procumbens [30]): inactive; Activity [31]: inactive; Activity (Pontederia vaginalis [32]): inactive; Activity (Cyperus difformis [33]): inactive; Activity (Echinochloa oryzicola [34]): inactive |
| Cn1cc(C(=O)Nc2ccc(F)cc2F)c(Oc2ccc(Br)c(C(F)(F)F)c2)n1 | Active | Active | Active | Active | Active | – | – | – | – | Active | Active | Active | Active | Active | Active | Active | Active | Active | Active | Active | Activity (Oryza sativa [26]): Non-toxic; Activity (Ammannia multiflora [27]): Active; Activity (Elatine triandra [28]): Active; Activity (Rotala indica [29]): Active; Activity (Lindernia procumbens [30]): Active; Activity [31]: inactive; Activity (Pontederia vaginalis [32]): Active; Activity (Cyperus difformis [33]): Active; Activity (Echinochloa oryzicola [34]): inactive |
| CCCCn1cc(C(=O)Nc2ccc(F)cc2F)c(Oc2cccc(C(F)(F)F)c2)n1 | Active | Active | Active | Active | Active | – | – | – | – | Active | Active | Active | Active | Active | Active | Active | Active | Active | Active | Active | Activity (Oryza sativa [26]): Non-toxic; Activity (Ammannia multiflora [27]): inactive; Activity (Elatine triandra [28]): inactive; Activity (Rotala indica [29]): inactive; Activity (Lindernia procumbens [30]): inactive; Activity [31]: inactive; Activity (Pontederia vaginalis [32]): inactive; Activity (Cyperus difformis [33]): inactive; Activity (Echinochloa oryzicola [34]): inactive |
| Cn1cc(C(=O)Nc2ccc(Cl)cc2F)c(Oc2cccc(C(F)(F)F)c2)n1 | Active | Active | Active | Active | Active | – | – | – | – | Active | Active | Active | Active | Active | Active | Active | Active | Active | Active | Active | Activity (Oryza sativa [26]): Non-toxic; Activity (Ammannia multiflora [27]): Active; Activity (Elatine triandra [28]): Active; Activity (Rotala indica [29]): Active; Activity (Lindernia procumbens [30]): Active; Activity [31]: inactive; Activity (Pontederia vaginalis [32]): Active; Activity (Cyperus difformis [33]): Active; Activity (Echinochloa oryzicola [34]): inactive |
